The results in this text go back to patent US11479604B2, “Immunomodulatory peptides and methods for modulating the immune system in a subject” (Recepta Biopharma S.A., priority 2017, dated 2022).

Assay [1] relates to human monocyte-derived dendritic cells (mo-DC). In words: Membrane phenotype of human mo-DC from healthy donors. Type of assay: cell-based. The method, then: Peripheral blood mononuclear cells (PBMCs) were isolated by centrifugation over Ficoll-Paque Plus (GE Healthcare). After a 2 h-incubation in plastic 6-well plates, non-adherent cells were removed from culture and adherent cells (monocytes) were cultivated for 7 days in RPMI-1640 culture medium (Gibco, Grand Island, N.Y., USA), supplemented with 10% FCS (Gibco) plus antibiotic-antimycotic (Gibco) and in the presence of GM-CSF (50 ng/ml—Peprotech, Mexico) and IL-4 (50 ng/ml—Peprotech). At day 5 of culture TNF-α (50 ng/ml; Peprotech, Mexico) was added for mo-DC maturation.
Human cells were analyzed in a similar manner, but staining was performed in BSA-PBS, without EDTA. Antibodies against CD11c, CD14, CD80, CD83, CD86, HLA-ABC, HLA-DR, CCR7, PD-L1, conjugated with different fluorochromes and live/dead labeling (Molecular Probes, Oregon, USA) were used. Acquisition was performed in a FACSCanto II analyzer (BD Biosciences) and analyzed with the FlowJo Software X.10.07r2 (Tree Star).

Another assay deals with B16F10-Nex2 melanoma. In words: Subcutaneous melanoma model. Type of assay: in vivo, C57BL/6 mice. The note with it: i.p. administration. The method, then:
(§1) Male C57BL/6 mice, 6 to 8-week-old were obtained from the Center for Development of Experimental Models (CEDEME), Federal University of Sao Paulo (UNIFESP). For the in vivo metastatic model, C57BL/6 mice received one intravenous (i.v.) injection of 2×10^5 viable B16-F10-Next melanoma cells in 100 μL. […] The control group received 100 μL PBS. Twenty-two days later, mice (minimum n=3 per group) had their lungs harvested, and the number of macroscopic melanotic nodules were counted. The Ethical Committee of Federal University of São Paulo, Project no. 1234, 2011, approved all experiments with animals, according to International guidelines. For the subcutaneous model, mice were injected with 5×10^5 tumor cells suspended in 100 μL of PBS in the right flank via the subcutaneous route. The peptide (300 μg) was solubilized in 10 μL of distilled H2O and 90 μL of PBS and injected per mouse via the intraperitoneal route. The administration of the peptide was performed in 5 alternate days initiating one day after tumor challenge. Tumor longitudinal diameter (D) and transverse diameter (d) were measured every 2 days until the tumor volume reached 3,000 mm3. Animals were sacrificed when the allowed volume was reached. Volume was calculated using the formula v=Dd^2×0.52. […]

Another assay relates to B16F10-Nex2 tumor cells. In words: Metastatic melanoma model in immunodeficient mice. It counts as in vivo, NOD/Scid/IL-2R-gamma^null mice. The note with it: 250 μg i.p. on days 1-11, lungs on day 22. The method, then: B16F10-Nex2 tumor cells (2×10^5) in RPMI (100 μl) were injected in both animal groups in the tail veins on day 0. Animals were sacrificed on day 22, or 10 days after the last administration of the peptide, and their lungs were examined for dark melanotic nodules.

Assay [2] concerns mo-DC obtained from cancer patients' monocytes. In words: Allogeneic T cell proliferation induced by cancer patients' mo-DC. Type of assay: cell-based, human. The method, then:
(§2) Mo-DC were co-cultured with allogeneic lymphocytes (DC:Ly=1:30) to evaluate their ability to induce lymphocyte proliferation. This was measured by carboxyfluorescein succinimidyl ester (CFSE—Molecular Probes) dilution and activation measured by correlation among CD4/CD25 and Foxp3 expression (Clavijo-Salomon et al., 2016).
Since it is well known that mo-DC from cancer patients can be functionally biased, but are not always so, the patients were separated into two groups, according to their mo-DC ability to induce allogeneic T cell proliferation. Patients whose mo-DC induced less than 35% of the phytohemagglutinin A (PHA)-induced response constituted one group (“defective”) and those whose mo-DC induced a response higher than 35% of the PHA response, the other (“normal”).

In the next assay the test system is CD11c+ cells. In words: TGF-beta1 ELISA of CD11c+ cells from lymphoid organs of melanoma-bearing treated mice. Type of assay: in vivo, C57Bl6 mice. The conditions noted are these: 300 μg/dose i.p., day 17. The method, then: Animals were sacrificed on day 17 and their lungs, cervical and axillary lymph nodes and spleen were processed for examination. Lymph nodes and spleen were macerated separately, DMEM was added and passed through a cell strainer. CD11c+ cells were isolated using mouse CD11c+ beads and magnetic sorting. Cells were suspended in R10 medium and plated in […] at 10^6 cells/well. Cells were incubated for 24 h with or without tumor cell lysate (B16F10 stimulus). The supernatant was used in a TGF-beta1 ELISA test.

Assay [3] concerns pancreas carcinoma Panc02. In words: Subcutaneous syngeneic pancreatic carcinoma model. It counts as in vivo, C57BL6 mice. The note with it: 300 μg i.p., 5 doses every other day. The method, then: as §1
Assay [4] has as its system B16F10-Nex2 melanoma cells. In words: Prophylactic adoptive transfer of peptide-stimulated dendritic cells, metastatic melanoma. It counts as in vivo, syngeneic mice. The conditions noted are these: DCs incubated with 50 μg/ml peptide, with or without tumor cell lysate; s.c.; tumor challenge day 14, count day 29. The method, then:
DCs were obtained from the bone marrow of 6 to 8-week-old C57Bl6 mice. Briefly, femora and tibiae from mice were removed and stripped of muscles and tendons; both bone ends were cut, and bone marrow was extracted by placing the bone pieces into 1-ml tips, which in turn were inserted into 15-ml tubes and centrifuged for 10 minutes at 1500 rpm. Cells were resuspended in DMEM and cell clusters were dissociated by repeated pipetting. The total bone marrow cells were cultured in 100-mm treated tissue culture dish in 10 ml of R10 medium (DMEM medium supplemented with 2 mM glutamine, 10,000 U/ml penicillin, 10 mg/ml streptomycin, 50 μM 2-mercaptoethanol, 1 mM sodium pyruvate, MEM-nonessential aminoacids, MEM Vitamin solution, 10% heat-inactivated fetal bovine serum and GM-CSF (20 ng/ml) and IL-4 (40 ng/ml). Fresh medium (3 ml) with GM-CSF (200 ng/ml) and IL-4 (400 ng/ml) was added every 3 days. On day 7, adherent cells, that were harvested using PBS 2 mM EDTA, together with the non-adherent cells were pooled and used as the starting cell source for the experiments. BMDC Protocol 2
DCs were inoculated s.c. in syngeneic mice. On day 14, mice were inoculated i.v. with melanoma tumor cells (5×10^5 cells) and on day 29, the lung melanotic nodules were counted.

Assay [5] relates to human mo-DC co-cultured with allogeneic lymphocytes. In words: Allogeneic lymphocyte proliferation induced by mo-DC of healthy donors (CFSE). Type of assay: cell-based. The note with it: TNF, tumor lysate and peptide; mo-DC:lymphocyte 1:30. The method, then: as §2
After two days in co-culture, the dilution of CFSE in lymphocytes was evaluated as a measurement of lymphocyte proliferation.

Entries after “also recorded” stand apart in the source; their conditions may differ.

In the case of [CARGETARATFAYWGQGC], NH2 (C-C) [Rb9], the “expression of activation markers on immature mo-DC” value in assay [1] (50 μg/mL at day 5, analysis 2 days later) was “enhanced the expression of activation markers”. In assay [1] (50 μg/mL peptide + TNF-alpha 50 ng/mL at day 5), the “expression of maturation markers on mo-DC with TNF-alpha” value is recorded as “further enhancing the expression of maturation markers”. In addition, the “response of subcutaneous growing melanoma to peptide” value in the assay with B16F10-Nex2 melanoma is given as “much more resistant; also recorded: resistant”. The “protection against lung nodules” value in the assay with B16F10-Nex2 tumor cells was “No protection”. In assay [2], the “ability of "defective" mo-DC to induce allogeneic T cell proliferation” value is on record as “enhanced the ability” and the “lympho-stimulatory activity of "normal" mo-DC” value is on record as “inhibited the lympho-stimulatory activity”. In addition, the “TGF-beta in tumor-lysate stimulated CD11c+ cells from the spleen” value in the assay with CD11c+ cells was “increased”. In addition, the “TGF-beta secreted by lymph node CD11c+ cells” value in the assay with CD11c+ cells (vs vehicle (PBS) control cells stimulated by melanoma lysate) is “greatly reduced”. Also, in assay [3], the “deaths up to the 40th day” value is listed as “no deaths were recorded” and the s.c. tumor growth entry is reported as “significantly delayed”. The “protective effect of peptide-stimulated DCs (lung melanotic nodules)” value in assay [4] is listed as “remarkable protective effect”. The “lympho-stimulatory ability of mo-DC” value in assay [5] is reported as “further enhance the lympho-stimulatory ability”.
